Laboratory results as given in patent US7345091B2, “Carotenoid ether analogs or derivatives for the inhibition and amelioration of disease” (Cardax Pharmaceuticals, Inc., priority 2002, dated 2008).
Like-named read-outs stand apart in the source and are kept apart here. One block for each molecule: values may come before it.

Assays:
[1] = for behavior as radical quencher compared with non-esterified, free astaxanthin: formation of carotenoid radical cation
From the text: FIG. 27 and FIG. 28 depict the results of spectral analysis after flash photolysis of the formation of triplet and carotenoid cation radical states for non-esterified, free astaxanthin 2E and the diacid disuccinate astaxanthin derivative XV were obtained. Formation of the carotenoid cation radical is a measure of the potential biophysical behavior of the novel derivative as an antioxidant. If a derivative retains the antioxidant behavior of non-esterified, free astaxanthin, then all previously documented (i.e. literature precedent) therapeutic applications for astaxanthin can be reasonably assumed for the novel derivative, including at least singlet oxygen quenching, lipid peroxidation chain-breaking, and/or direct radical scavenging.
In this experiment, nitronaftalin (NN) was used as the photosensitizer. After irradiation, the excited sensitizer (NN*) forms a sensitizer triplet (^3NN). When ^3NN encounters a carotenoid, energy and electron transfer reactions with ^3NN take place. The resulting relatively stable ^3car and carotenoid cation radicals (car*^+) are detected by characteristic absorption bands. Non-polar solvents (e.g. hexane) favor the formation of ^3car, and more polar solvents (alcohols, water) favor the formation of the car.^+. The anion radical of the sensitizer (NN.^−) is not typically seen because of a low absorption coefficient.
The ^3car decays rather quickly. After 15 μs, half of the ^3car has disappeared, and after 50 μs, no ^3car is left.
The spectrum of asta 2E is nearly identical to that of astaCOOH XV. After 50 μs, the ^3car has disappeared. During this time frame, the car.^+ is stable. Negative and positive peaks in the absorption spectra for astaCOOH XV and asta 2E are superimposable.

[2] = Determination of water solubility; format: physicochemical
Description: A total of 30 mg of sample (disodium disuccinate astaxanthin derivative, as the all-trans mixture of stereoisomers 3S,3′S, meso, and 3R,3′R in a 1:2:1 ratio) was added to 2 mL of sterile-filtered ([…] Millipore®) deionized (DI) water in a 15 mL glass centrifuge tube. The tube was wrapped in aluminum foil and the mixture was shaken for 2 hours, then centrifuged at 3500 rpm for 10 minutes. The aqueous solution was filtered through a 0.45 micron PVDF disposable filter device. A 1 mL volume of filtrate was then diluted appropriately with DI water, and the concentration of the solution was measured at 480 nm using a four point calibration curve prepared from fresh sample.

superoxide anion = assay: Superoxide anion scavenging by EPR (DEPMPO spin trap) in phorbol ester-stimulated isolated neutrophils; format: cell-based, human; conditions: for reduction of superoxide anion signal: aqueous; for Mean (% inhibition) of superoxide anion signal: 0.1 mM
Description: In an experiment, neutrophils were isolated on a Percoll gradient from whole blood from a human volunteer. The isolated neutrophils were then re-suspended in phosphate-buffered saline, and maximally stimulated with phorbol ester to induce the respiratory burst and production of superoxide anion. To the solution of activated human neutrophils, the disodium salt disuccinate astaxanthin derivative XVI was added at various concentrations, and the superoxide signal [as measured with electron paramagnetic resonance (EPR) spectroscopy] was subsequently measured. […] The disodium salt disuccinate astaxanthin derivative XVI tested at 100 μM scavenged 28% of the total signal. At 3 mM, almost no superoxide signal remained. […] In addition to reducing the superoxide anion signal important in ischemia-reperfusion injury, it is also likely that myocardial salvage can be achieved with the described carotenoid derivative, as superoxide anion plays a major role in tissue injury and death during prolonged myocardial ischemia. In a third experiment, neutrophils were again isolated on a Percoll gradient from whole blood from a second human volunteer. The isolated neutrophils were then re-suspended in phosphate-buffered saline, and maximally stimulated with phorbol ester to induce the respiratory burst and production of superoxide anion. […] Astaxanthin 2E was dissolved in HPLC grade dimethylsulfoxide (DMSO; Sigma-Aldrich, St. Louis, Mo.). The disodium disuccinate derivatives XVI of astaxanthin 2E were tested separately in […] formulations: statistical mixture of stereoisomers (as for astaxanthin, above, a 1:2:1 mixture of all-E; labeled as “mixture” in all tables and figures); 3S,3'S, and 3R,3'R (optical isomers or enantiomers); and meso (mixture of identical 3S,3'R and 3'S,3R; diastereomers of the enantiomeric pair). […] The disuccinate derivatives were first tested at the appropriate final concentrations in pure aqueous solution (deionized water) from stock solutions of 10 mM. Each of the four disuccinate derivatives were then tested from stock solutions prepared in a 1:2 mixture of ethanol (final concentration of EtOH in stock solution 331⁄3%; final concentration in isolated neutrophil assay 0.3%; HPLC grade ethanol, Sigma-Aldrich, St. Louis, Mo.) at 10 mM. […] Metaphore® Pharmaceuticals, Inc., St. Louis, Mo.) were also performed. Human polymorphonuclear leukocytes (PMNs) were isolated from freshly sampled venous blood of a single volunteer by Percoll density gradient centrifugation, which yielded PMNs with a purity of >95%. Each 10 mL of whole blood was mixed with 0.8 mL of 0.1 M EDTA and 25 mL of saline. The diluted blood was layered over 9 mL of Percoll at a specific density of 1.080 g/mL. After centrifugation at 400×g for 20 min at 20° C., the plasma, mononuclear cell, and Percoll layers were removed. Erythrocytes were lysed by addition of 18 mL of ice-cold water for 30 s, followed by 2 mL of 10× PIPES buffer (25 mM PIPES, 110 mM NaCl, and 5 mM KCl, titrated to pH 7.4 with NaOH). Cells were pelleted at 4° C., the supernatant was decanted, and the procedure was repeated. After the second hypotonic lysis, cells were washed twice with PAG buffer (PIPES buffer containing 0.003% human serum albumin and 0.1% glucose). Afterward, PMNs were counted by light microscopy on a hemocytometer. The final pellet was then suspended in PAG-CM buffer (PAG buffer with 1 mM CaCl2 and 1 mM MgCl2). All EPR measurements were performed using a Bruker ER 300 EPR spectrometer operating at X-band with a TM110 cavity. The microwave frequency was measured with a Model 575 microwave counter (EIP Microwave, Inc., San Jose, Calif.). To measure O^ -2 generation from phorbol-ester (PMA)-stimulated PMNs, EPR spin-trapping studies were performed using DEPMPO (Oxis, Portland, Oreg.) at 10 mM. 1×10^6 PMNs were stimulated with PMA (1 ng/mL) and loaded into capillary tubes for EPR measurements. […]

Cx43 protein = Cx43 protein expression by stereoisomer forms (immuno-(Western) blotting, 4 days); format: cell-based, mouse; conditions: 1×10^-5 M in 1:2 ethanol/H2O, four days; vs 1:2 ethanol/H2O alone
Description: (2) Molecular Studies. […] Briefly, mouse embryonic fibroblast C3H10T1/2 cells were cultured in Eagle's basal medium with Earle's salts (Atlanta Biologicals, Atlanta, Ga.), supplemented with 5% fetal calf serum (Atlanta Biologicals, Atlanta, Ga.) and 25 μg/mL gentamicin sulfate (Sigma, St. Louis, Mo.), and incubated at 37° C. in 5% CO2. On the 7th day after seeding in 100 millimeter (mm) dishes, the confluent cells were treated for four days with the disodium salt disuccinate astaxanthin derivatives XVI and then harvested and analyzed for Cx43 protein induction as described. Protein content was measured using the Protein Assay Reagent kit (Pierce Chemical Co., Rockford, Ill.) according to manufacturer's instructions. Cell lysates containing 100 μg of protein were analyzed by Western blotting using the NuPage western blotting kit and apparatus (Invitrogen, Carlsbad, Calif.) and Cx43 protein detected using a rabbit polyclonal antibody (Zymed, San Francisco, Calif.) raised against a synthetic polypeptide corresponding to the C-terminal domain of mouse, human and rat Cx43. Cx43 immunoreactive bands were visualized by chemiluminescence using an anti-rabbit HRP-conjugated secondary antibody (Pierce Chemical Co., Rockford, Ill.). Digital images were obtained with a cooled CCD camera, and quantitative densitometry was then performed (Bio-Rad, Richmond, Calif.).

[3] = target: human serum albumin (HSA) (Homo sapiens, UniProt P02768)
human serum albumin (HSA), sequence (P02768 25-609): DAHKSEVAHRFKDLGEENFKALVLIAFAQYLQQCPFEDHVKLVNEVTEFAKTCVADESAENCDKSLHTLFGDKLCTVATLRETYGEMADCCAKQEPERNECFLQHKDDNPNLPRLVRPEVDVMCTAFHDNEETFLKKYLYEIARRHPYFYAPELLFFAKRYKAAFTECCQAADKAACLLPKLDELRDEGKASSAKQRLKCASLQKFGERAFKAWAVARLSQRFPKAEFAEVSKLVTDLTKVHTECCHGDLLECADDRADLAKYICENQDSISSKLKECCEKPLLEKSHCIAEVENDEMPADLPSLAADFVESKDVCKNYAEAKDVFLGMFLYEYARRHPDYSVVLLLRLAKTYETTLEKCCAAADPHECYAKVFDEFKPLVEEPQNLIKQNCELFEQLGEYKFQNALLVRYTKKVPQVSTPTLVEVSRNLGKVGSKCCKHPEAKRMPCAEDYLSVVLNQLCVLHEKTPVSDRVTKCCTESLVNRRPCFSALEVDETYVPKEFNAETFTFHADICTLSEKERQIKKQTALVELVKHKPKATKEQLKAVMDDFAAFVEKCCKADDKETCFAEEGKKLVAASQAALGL

- stability of the carotenoid cation radical (car.+) [1]: stable within this time frame
SMILES: CC1=C(/C=C/C(C)=C/C=C/C(C)=C/C=C/C=C(C)/C=C/C=C(C)/C=C/C2=C(C)C(=O)C(OC(=O)CCC(=O)O)CC2(C)C)C(C)(C)CC(OC(=O)CCC(=O)O)C1=O (stereo not drawn) [XV, Succinic Acid mono-(4-{18-[4-(3-carboxy-propionyloxy)-2,6,6-trimethyl-3-oxo-cyclohex-1-enyl]-3,7,12,16-tetramethyl-octadeca-1,3,5,7,9,11,13,15,17-nonaenyl}-3,5,5-trimethyl-2-oxo-cyclohex-3-enyl) ester]
- time after which half of the 3car (carotenoid triplet) has disappeared ([1]; acetonitrile, sensitizer NN): 15 μs
- time after which no 3car (carotenoid triplet) is left ([1]; acetonitrile, sensitizer NN): 50 μs
- behavior as radical quencher compared with non-esterified, free astaxanthin ([1]; acetonitrile, sensitizer NN): behaves like asta 2E
- behavior as radical quencher compared with non-esterified, free astaxanthin ([1]; acetonitrile, sensitizer NN, listed as astaCOOH): identically to non-esterified, free racemic astaxanthin

- solubility at 2 h ([2]; deionized water, water, thermodynamic from solid, pure aqueous formulation): > 50 mg/mL
SMILES: CC1=C(/C=C/C(C)=C/C=C/C(C)=C/C=C/C=C(C)/C=C/C=C(C)/C=C/C2=C(C)C(=O)C(OC(=O)C(N)CCCCN)CC2(C)C)C(C)(C)CC(OC(=O)C(N)CCCCN)C1=O.Cl.Cl.Cl (stereo not drawn) [XX, Tetrahydrochloride Salt of the Dilysinate Ester of Astaxanthin]
- reduction of superoxide anion signal (superoxide anion; 1 μM): approximately 5%
- reduction of superoxide anion signal (superoxide anion; 3 mM): 98%

- water solubility [2]: highly water soluble
SMILES: CC(C=CC=C(C)C=CC1=C(C)C(=O)C(OC(=O)CCC(=O)OCC(O)C2OC(=O)C(O)=C2O)CC1(C)C)=CC=CC=C(C)C=CC=C(C)C=CC1=C(C)C(=O)C(OC(=O)CCC(=O)OCC(O)C2OC(=O)C(O)=C2O)CC1(C)C (stereo not drawn) [XXIII, Succinic acid 4-[18-(4-{3-[2-(3,4-dihydroxy-5-oxo-2,5-dihydrofuran-2-yl)-2-hydroxy-ethoxycarbonyl]-propionyloxy}-2,6,6-trimethyl-2-oxo-cyclohex-1-enyl)-3,7,12,16-tetramethyl-octadeca-1,3,5,7,9,11,13,15,17-nonaenyl]-3,5,5-trimethyl-2-oxo-cyclohex-3-enyl ester 2-(3,4-dihydroxy-5-oxo-2,5-dihydrofuran-2-yl)-2-hydroxy-ethyl ester]
- increase in radical scavenging potency over the disodium disuccinate astaxanthin derivative (XVI) (superoxide anion): 50 fold
- inhibition of superoxide anion signal (superoxide anion; 60 μM, without a co-solvent): nearly complete inhibition
- concentration at which complete suppression of the superoxide anion signal was achieved (superoxide anion; activated human neutrophils, EPR): 60 µM

SMILES: CC1=C(/C=C/C(C)=C/C=C/C(C)=C/C=C/C=C(C)/C=C/C=C(C)/C=C/C2=C(C)C(=O)[C@H](OC(=O)CCC(=O)[O-])CC2(C)C)C(C)(C)C[C@H](OC(=O)CCC(=O)[O-])C1=O.[Na+].[Na+] [Meso, disodium salt disuccinate derivative XVI (dAST) of synthetic meso-astaxanthin (3R,3′S-dihydroxy-β,β-carotene-4,4′-dione)]
- Mean (% inhibition) of superoxide anion signal (superoxide anion; Solvent EtOH (1:2 EtOH/water stock, 0.3% final)): 42.5%
- Mean (% inhibition) of superoxide anion signal (superoxide anion; Solvent Water): 15.7%
- expression of Cx43 protein (Cx43 protein): increase expression of Cx43 protein
- quenching of the intrinsic fluorescence of HSA ([3]; 0.1 M pH 7.4 phosphate buffer, 37° C.): able to effectively quench the intrinsic fluorescence of HSA
- decrease of baseline fluorescence intensity of HSA ([3]; L/P ratio of 0.7, 0.1 M pH 7.4 phosphate buffer, 37° C.): 50%
- mode of binding to HSA ([3]; low ligand/protein molar ratios, pH 7.4 Ringer buffer): monomeric form
